{"source": "patent US8354269B2", "about": "(priority 2008, dated 2013)", "key": {"[1]": {"test_system": "Clostridium autoethanogenum culture 19630", "details": "NiCl2 1 mM, fructose 3 g/L", "protocol": "(§1) To determine the cell density in these experiments, the absorbance of the samples was measured at 600 nm (spectrophotometer) and the dry mass determined by extrapolation.\n(§2) High Performance Liquid Chromatography (HPLC) was used to characterize the level of substrates and products such as for acetate, ethanol, fructose, xylose and pyruvate. HPLC System Agilent 1100 Series. Mobile Phase: 0.0025N Sulphuric Acid. Flow and pressure: 0.800 mL/min. Column: Alltech IOA; Catalog #9648, 150×6.5 mm, particle size 5 μm. Temperature of column: 60° C. Detector: Refractive Index. Temperature of detector: 45° C.\n(§3) Method for sample preparation: 400 μL of sample+50 μL of 0.15M ZnSO4+50 μL of 0.15M Ba(OH)2 into an Eppendorf tube. Centrifuge 10 min at 12,000 rpm, 4° C. Transfer 200 μL supernatant into an HPLC vial and inject into the HPLC instrument 5 μL.\nSterile 234 ml serum bottles were purged three times with 95% CO, 5% CO2 gas and then evacuated to a vacuum of −5 psi. The serum bottles were charged with 25 ml of LM33 media. NiCl2 solution (to final concentrations of 1 mM) and fructose (3 g/L) were added to the serum bottle which was inoculated with 1 ml of an actively growing Clostridium autoethanogenum culture 19630 from a continuous bioreactor. The headspace of the serum bottle was then filled with CO containing gas to 30 psi (composition 100% CO). The serum bottles were incubated at 37° C. and continuously agitated. Samples were taken at intervals and the headspace was purged and refreshed up to 30 psi following sampling."}, "[2]": {"test_system": "Clostridium autoethanogenum culture 19630", "details": "54 hours", "protocol": "as §1\nEach well was inoculated with 50 μL of an actively growing Clostridium autoethanogenum culture 19630 from a continuous bioreactor. The wells were then mixed thoroughly and 200 ul from each well was added to a 96 well tissue culture plate. The plate was then sealed with a gas permeable sealing film and placed into an anaerobic pressure vessel. This vessel was pressurized to 30 psi with 100% CO gas and placed on an orbital shaker (150 rpm) in an incubated chamber at 37° C. Samples were analyzed at 54 hours after incubation."}, "[3]": {"test_system": "Clostridium autoethanogenum DSM10061", "protocol": "as §2, §3\nThe serum bottles were charged with CO containing gas (2% H2; 30% N2; 47% CO; 21% CO2) to an overpressure of 30 psi. The gas was purged and refreshed at time=54 h. Growth was monitored by measuring the optical density at 600 nm (OD600nm) and metabolites were detected by HPLC."}}, "note": "Like-named read-outs stand apart in the source and are kept apart here."}
{"smiles": "[Cl][Ni][Cl]", "note": "[Nickel, nickel chloride]", "values": [{"measurement": "Acetic Acid", "setting": "[1]; 12 h after inoculation", "value": 0.42, "unit": "g/L"}, {"measurement": "Cell density", "setting": "[1]; 12 h after inoculation", "value": 0.16, "unit": "g/L"}, {"measurement": "Ethanol", "setting": "[1]; 12 h after inoculation", "value": 0.25, "unit": "g/L"}, {"measurement": "Fructose", "setting": "[1]; 12 h after inoculation", "value": 2.87, "unit": "g/L"}, {"measurement": "Acetic Acid", "setting": "[1]; 18 h after inoculation", "value": 0.48, "unit": "g/L"}, {"measurement": "Cell density", "setting": "[1]; 18 h after inoculation", "value": 0.20, "unit": "g/L"}, {"measurement": "Ethanol", "setting": "[1]; 18 h after inoculation", "value": 0.61, "unit": "g/L"}, {"measurement": "Fructose", "setting": "[1]; 18 h after inoculation", "value": 2.4, "unit": "g/L"}, {"measurement": "Acetic Acid", "setting": "[1]; 30 h after inoculation", "value": 0.45, "unit": "g/L"}, {"measurement": "Cell density", "setting": "[1]; 30 h after inoculation", "value": 0.73, "unit": "g/L"}, {"measurement": "Ethanol", "setting": "[1]; 30 h after inoculation", "value": 4.19, "unit": "g/L"}, {"measurement": "Fructose", "setting": "[1]; 30 h after inoculation", "value": 0, "unit": "g/L"}, {"measurement": "Acetic Acid", "setting": "[1]; 80 h after inoculation", "value": 0.38, "unit": "g/L"}, {"measurement": "Cell density", "setting": "[1]; 80 h after inoculation", "value": 0.98, "unit": "g/L"}, {"measurement": "Ethanol", "setting": "[1]; 80 h after inoculation", "value": 7.60, "unit": "g/L"}, {"measurement": "Fructose", "setting": "[1]; 80 h after inoculation", "value": 0, "unit": "g/L"}, {"measurement": "Acetic Acid", "setting": "[1]; 96 h after inoculation", "value": 0.31, "unit": "g/L"}, {"measurement": "Cell density", "setting": "[1]; 96 h after inoculation", "value": 1.07, "unit": "g/L"}, {"measurement": "Ethanol", "setting": "[1]; 96 h after inoculation", "value": 7.81, "unit": "g/L"}, {"measurement": "Fructose", "setting": "[1]; 96 h after inoculation", "value": 0, "unit": "g/L"}, {"measurement": "Cell density", "setting": "[2]; Additional Nickel 100 μM", "value": 0.23, "unit": "g/L"}, {"measurement": "Cell density", "setting": "[2]; Additional Nickel 200 μM", "value": 0.25, "unit": "g/L"}, {"measurement": "Cell density", "setting": "[2]; Additional Nickel 300 μM", "value": 0.28, "unit": "g/L"}, {"measurement": "Cell density", "setting": "[2]; Additional Nickel 400 μM", "value": 0.30, "unit": "g/L"}, {"measurement": "Cell density", "setting": "[2]; Additional Nickel 500 μM", "value": 0.35, "unit": "g/L"}, {"measurement": "Cell density", "setting": "[2]; Additional Nickel 600 μM", "value": 0.31, "unit": "g/L"}, {"measurement": "Cell density", "setting": "[2]; Additional Nickel 700 μM", "value": 0.37, "unit": "g/L"}, {"measurement": "Cell density", "setting": "[2]; Additional Nickel 800 μM", "value": 0.45, "unit": "g/L"}, {"measurement": "Cell density", "setting": "[2]; Additional Nickel 900 μM", "value": 0.43, "unit": "g/L"}, {"measurement": "Cell density", "setting": "[2]; Additional Nickel 1000 μM", "value": 0.39, "unit": "g/L"}, {"measurement": "Ethanol", "setting": "[3]; Nickel 200 μM, 0 h", "value": "0.22 ± 0.02", "unit": "g/L"}, {"measurement": "OD600 nm", "setting": "[3]; Nickel 200 μM, 0 h", "value": "0.009 ± 0.001"}, {"measurement": "Ethanol", "setting": "[3]; Nickel 200 μM, 30 h", "value": "0.22 ± 0.03", "unit": "g/L"}, {"measurement": "OD600 nm", "setting": "[3]; Nickel 200 μM, 30 h", "value": "0.038 ± 0.010"}, {"measurement": "Acetate", "setting": "[3]; Nickel 200 μM, 54 h", "value": "0.12 ± 0.02", "unit": "g/L"}, {"measurement": "Ethanol", "setting": "[3]; Nickel 200 μM, 54 h", "value": "0.23 ± 0.03", "unit": "g/L"}, {"measurement": "OD600 nm", "setting": "[3]; Nickel 200 μM, 54 h", "value": "0.052 ± 0.022"}, {"measurement": "Acetate", "setting": "[3]; Nickel 200 μM, 102 h", "value": "0.83 ± 0.53", "unit": "g/L"}, {"measurement": "Ethanol", "setting": "[3]; Nickel 200 μM, 102 h", "value": "0.23 ± 0.01", "unit": "g/L"}, {"measurement": "OD600 nm", "setting": "[3]; Nickel 200 μM, 102 h", "value": "0.223 ± 0.141"}, {"measurement": "Acetate", "setting": "[3]; Nickel 200 μM, 127 h", "value": "1.48 ± 0.54", "unit": "g/L"}, {"measurement": "Ethanol", "setting": "[3]; Nickel 200 μM, 127 h", "value": "0.30 ± 0.19", "unit": "g/L"}, {"measurement": "OD600 nm", "setting": "[3]; Nickel 200 μM, 127 h", "value": "0.333 ± 0.131"}, {"measurement": "Ethanol", "setting": "[3]; Nickel 400 μM, 0 h", "value": "0.22 ± 0.02", "unit": "g/L"}, {"measurement": "OD600 nm", "setting": "[3]; Nickel 400 μM, 0 h", "value": "0.010 ± 0.001"}, {"measurement": "Ethanol", "setting": "[3]; Nickel 400 μM, 30 h", "value": "0.22 ± 0.02", "unit": "g/L"}, {"measurement": "OD600 nm", "setting": "[3]; Nickel 400 μM, 30 h", "value": "0.065 ± 0.002"}, {"measurement": "Acetate", "setting": "[3]; Nickel 400 μM, 54 h", "value": "0.18 ± 0.10", "unit": "g/L"}, {"measurement": "Ethanol", "setting": "[3]; Nickel 400 μM, 54 h", "value": "0.21 ± 0.02", "unit": "g/L"}, {"measurement": "OD600 nm", "setting": "[3]; Nickel 400 μM, 54 h", "value": "0.087 ± 0.011"}, {"measurement": "Acetate", "setting": "[3]; Nickel 400 μM, 102 h", "value": "1.05 ± 0.85", "unit": "g/L"}, {"measurement": "Ethanol", "setting": "[3]; Nickel 400 μM, 102 h", "value": "0.68 ± 0.41", "unit": "g/L"}, {"measurement": "OD600 nm", "setting": "[3]; Nickel 400 μM, 102 h", "value": "0.337 ± 0.129"}, {"measurement": "Acetate", "setting": "[3]; Nickel 400 μM, 127 h", "value": "1.44 ± 0.83", "unit": "g/L"}, {"measurement": "Ethanol", "setting": "[3]; Nickel 400 μM, 127 h", "value": "0.68 ± 0.21", "unit": "g/L"}, {"measurement": "OD600 nm", "setting": "[3]; Nickel 400 μM, 127 h", "value": "0.452 ± 0.200"}, {"measurement": "Ethanol", "setting": "[3]; Nickel 700 μM, 0 h", "value": "0.23 ± 0.03", "unit": "g/L"}, {"measurement": "OD600 nm", "setting": "[3]; Nickel 700 μM, 0 h", "value": "0.011 ± 0.001"}, {"measurement": "Ethanol", "setting": "[3]; Nickel 700 μM, 30 h", "value": "0.24 ± 0.02", "unit": "g/L"}, {"measurement": "OD600 nm", "setting": "[3]; Nickel 700 μM, 30 h", "value": "0.238 ± 0.023"}, {"measurement": "Acetate", "setting": "[3]; Nickel 700 μM, 54 h", "value": "0.25 ± 0.01", "unit": "g/L"}, {"measurement": "Ethanol", "setting": "[3]; Nickel 700 μM, 54 h", "value": "0.25 ± 0.03", "unit": "g/L"}, {"measurement": "OD600 nm", "setting": "[3]; Nickel 700 μM, 54 h", "value": "0.292 ± 0.013"}, {"measurement": "Acetate", "setting": "[3]; Nickel 700 μM, 102 h", "value": "0.94 ± 0.14", "unit": "g/L"}, {"measurement": "Ethanol", "setting": "[3]; Nickel 700 μM, 102 h", "value": "0.73 ± 0.05", "unit": "g/L"}, {"measurement": "OD600 nm", "setting": "[3]; Nickel 700 μM, 102 h", "value": "0.714 ± 0.060"}, {"measurement": "Acetate", "setting": "[3]; Nickel 700 μM, 127 h", "value": "0.95 ± 0.16", "unit": "g/L"}, {"measurement": "Ethanol", "setting": "[3]; Nickel 700 μM, 127 h", "value": "0.72 ± 0.03", "unit": "g/L"}, {"measurement": "OD600 nm", "setting": "[3]; Nickel 700 μM, 127 h", "value": "0.620 ± 0.021"}, {"measurement": "Ethanol", "setting": "[3]; Nickel 1000 μM, 0 h", "value": "0.29 ± 0.04", "unit": "g/L"}, {"measurement": "OD600 nm", "setting": "[3]; Nickel 1000 μM, 0 h", "value": "0.010 ± 0.001"}, {"measurement": "Ethanol", "setting": "[3]; Nickel 1000 μM, 30 h", "value": "0.28 ± 0.02", "unit": "g/L"}, {"measurement": "OD600 nm", "setting": "[3]; Nickel 1000 μM, 30 h", "value": "0.268 ± 0.080"}, {"measurement": "Acetate", "setting": "[3]; Nickel 1000 μM, 54 h", "value": "0.38 ± 0.01", "unit": "g/L"}, {"measurement": "Ethanol", "setting": "[3]; Nickel 1000 μM, 54 h", "value": "0.26 ± 0.03", "unit": "g/L"}, {"measurement": "OD600 nm", "setting": "[3]; Nickel 1000 μM, 54 h", "value": "0.389 ± 0.071"}, {"measurement": "Acetate", "setting": "[3]; Nickel 1000 μM, 102 h", "value": "1.57 ± 0.21", "unit": "g/L"}, {"measurement": "Ethanol", "setting": "[3]; Nickel 1000 μM, 102 h", "value": "1.02 ± 0.09", "unit": "g/L"}, {"measurement": "OD600 nm", "setting": "[3]; Nickel 1000 μM, 102 h", "value": "0.720 ± 0.105"}, {"measurement": "Acetate", "setting": "[3]; Nickel 1000 μM, 127 h", "value": "1.78 ± 0.11", "unit": "g/L"}, {"measurement": "Ethanol", "setting": "[3]; Nickel 1000 μM, 127 h", "value": "0.99 ± 0.11", "unit": "g/L"}, {"measurement": "OD600 nm", "setting": "[3]; Nickel 1000 μM, 127 h", "value": "0.674 ± 0.098"}]}
